Read-outs that look alike come from different tables or passages of the source.

This is an account of results in patent US10377818B2, “Method of treating glioma” (The Board of Trustees of the Leland Stanford Junior …, priority 2015, dated 2019).

For experiment [1], the system named is SU-pcGBM2 cells. The experiment can be described thus: EdU incorporation assay, proliferation index of pHGG cells (SU-pcGBM2). It is filed as cell-based, human. Particulars: for effect on the proliferative effect of active CM: 100 nM TRKB inhibitor ANA12 in combination with 500 nM NRXN; for effect on 50 nM NLGN3-induced increase in proliferation index: inhibitor 100 nM, EdU assay; for effect on proliferation index relative to aCSF control: recombinant candidate proteins at 100 nM for 24 hours; for potency of proliferation promotion compared with NLGN3: pHGG cells, dose curves 0-100 nM.

The next experiment concerns secreted NLGN3. Put plainly: Secreted NLGN3 in active CM of acute cortical slices incubated with protease inhibitors, Western blot. Particulars: slices incubated with protease inhibitor during optogenetic stimulation, preliminary experiments. Type of experiment: cell-based, mouse. The method, then: (§1) Thy1::ChR2 or WT mice between the age of 4-7 weeks were briefly exposed to CO2, and immediately decapitated. Extracted brains were placed in oxygenated sucrose solution and sliced in 350-μm sections using a vibratome (Leica VT 1200S, Buffalo Grove, Ill.). Slices were then placed in buffering solution (aCSF; 119 mM NaCl, 11 mM D-glucose, 25 mM NaHCO3, 2.5 mM KCl, 1.2 mM NaH2PO4, 2.3 mM MgCl2, and 2.5 mM CaCl2) and allowed to recover for at least an hour. After recovery, slices were then moved into a 24 well plate and stimulated using a blue-light LED from a microscope objective. The stimulation paradigm mirrored in vivo experiments, using 20-Hz pulses of blue light for a 30 s on, 90 s off cycle over a period of 30 minutes. Surrounding medium was then collected for immediate use or frozen for future experiments.
A series of similar preliminary experiments were performed in which acute cortical slices were incubated with different protease inhibitors during optogenetic stimulation and then the active CM was analyzed by Western blot for secreted NLGN3.
Role for MMP9 in NLGN3 secretion: Acute cortical slices from Thy1::ChR2 mice were optogenetically-stimulated in the presence or absence of protease inhibitors as indicated. Conditioned media was analyzed by Western blot for secreted NLGN3 content.
In general terms: A western blot detects proteins with antibodies after separation by electrophoresis.

For experiment [2], the system named is NLGN3 mRNA in SU-pcGBM2 cells. The experiment can be described thus: qPCR of NLGN3 gene expression in SU-pcGBM2 cells. It is filed as cell-based, human. Particulars: for effect on soluble NLGN3-induced increase in NLGN3 gene expression: 50 nM NLGN3 plus inhibitor, BKM120 500 nM (FIG. 5E) or 100 nM (FIG. 29), RAD001 100 nM. Background: Quantitative PCR measures a nucleic acid by following its amplification.

Experiment [3] concerns soluble NLGN3 in the CM (NLGN3 secretion). The experiment can be described thus: Soluble NLGN3 in CM of optogenetically stimulated acute cortical slices, 2D-PAGE and mass spectrometry. It is filed as cell-based, mouse. Conditions: slices incubated with inhibitor during optogenetic stimulation; pilot experiment. As for the experimental part: as §1
The test system of experiment [4] is SU-pcGBM2 cells. It is filed as cell-based, human.
A further experiment has as its system pHGG cells. The experiment can be described thus: pHGG cell proliferation with active CM from slices stimulated in presence of protease inhibitor. Type of experiment: cell-based, human. Conditions: inhibitor present during optogenetic stimulation of slices. The source says:
MMP inhibition abrogates activity-regulated glioma proliferation. Acute cortical slices were optogenetically-stimulated in the presence or absence of a protease inhibitor as in Example 14, and pHGG cells were exposed to the CM. As expected, active CM in the absence of protease inhibitors contained secreted NLGN3 (FIG. 37) and promoted glioma cell proliferation (FIG. 38).
MMP inhibition in situ reduces activity-regulated glioma cell proliferation in vitro Active CM from Thy1::ChR2 cortical slices were incubated with either the multi-MMP inhibitor batimastat (A) or the ADAM17 inhibitor TAPI (B) during optogenetic stimulation and the active CM collected. Unconditioned media (aCSF) with or without inhibitor was used in control wells. Data shown as mean±SEM. One-way ANOVA, *P<0.05, ***P<0.001. n.s.=P>0.05.

Regarding `O=C(Nc1ccccc1C(=O)NC1CCCCNC1=O)c1cc2ccccc2s1` (stereo not drawn) [ANA12, reference compound], in the experiment with SU-pcGBM2 cells [1], the “effect on the proliferative effect of active CM” value is reported as “completely abrogates the proliferative effect of active CM”.
Consider `CC(C)ON(CC(=O)NO)S(=O)(=O)c1ccc(-c2ccccc2)cc1` [ARP100], for which the “secreted NLGN3 levels in active CM” value with secreted NLGN3 is reported as “No detectable decrease in secreted NLGN3”.
On to `Cl.Nc1cc(C(F)(F)F)c(-c2cc(N3CCOCC3)nc(N3CCOCC3)n2)cn1` [BKM120, 5-(2,6-dimorpholin-4-ylpyrimidin-4-yl)-4-(trifluoromethyl)pyridin-2-amine hydrochloride], for which the “effect on 50 nM NLGN3-induced increase in proliferation index” value with SU-pcGBM2 cells [1] is “blocked”. Moreover, the “effect on soluble NLGN3-induced increase in NLGN3 gene expression” value in experiment [2] (12 h) is on record as “blocked the soluble NLGN3-induced increase in NLGN3 gene expression”. Further, the “effect on NLGN3 expression in the absence of soluble NLGN3 exposure” value in experiment [2] (BKM120 alone, 12 h) was “no effect on NLGN3 expression”.
In the case of `CNC(=O)[C@@H](NC(=O)[C@H](CCCc1ccccc1)[C@H](C)N(O)C=O)C(C)(C)C` [GI254023X], the “reduction in soluble NLGN3 in the CM” value in experiment [3] is reported as about 50%.
As to `O=C(NO)[C@@H](Cc1ccccc1)NS(=O)(=O)c1ccc(-c2ccccc2)cc1` [MMP2/9 inhibitor SCBT inhibitor II, (2R)—N-hydroxy-3-phenyl-2-[(4-phenylphenyl)sulfonylamino]propanamide], in the experiment on secreted NLGN3, the “secreted NLGN3 levels in active CM” value was “significant decrease in NLGN3 levels”.
Still for that read-out and setting: then `COc1ccc(S(=O)(=O)N2CCN(C(=O)OCc3ccccc3)CC2C(=O)NO)cc1` (stereo not drawn) [MMP9/13 Inhbitor II], with “significant decrease in NLGN3 levels”.
For the compound `CO[C@H]1C[C@@H]2CC[C@@H](C)[C@@](O)(O2)C(=O)C(=O)N2CCCC[C@H]2C(=O)O[C@H]([C@H](C)C[C@@H]2CC[C@@H](OCCO)[C@H](OC)C2)CC(=O)[C@H](C)/C=C(\C)[C@@H](O)[C@@H](OC)C(=O)[C@H](C)C[C@H](C)/C=C/C=C/C=C/1C` [RAD001, reference compound], in the experiment with SU-pcGBM2 cells [1], the “effect on 50 nM NLGN3-induced increase in proliferation index” value is “blocks 50 nM NLGN3-induced proliferation”. Further, the “effect on soluble NLGN3-induced increase in NLGN3 gene expression” value in experiment [2] (12 h) was “prevented the feed-forward effect of NLGN3 on NLGN3 gene expression”.
As to `NC1=N[C@H](O)[C@H]2[C@H]3O[C@]4(O)O[C@@H]([C@@H](O)[C@@]2(N1)[C@@H]4O)[C@]3(O)CO` [TTX, tetrodotoxin], the proliferation index with SU-pcGBM2 cells [4] is about 0.25.
As to “ApoE: Recombinant candidate protein from proteomic analyses of cortical slice conditioned media”, the “effect on proliferation index relative to aCSF control” value in the experiment on SU-pcGBM2 cells [1] is given as “did not differ”.
Take “BDNF: Recombinant brain-derived neurotrophic factor (R&D Systems), candidate mitogen”: in the experiment on SU-pcGBM2 cells [1], the “potency of proliferation promotion compared with NLGN3” value was “less potently than NLGN3” and the “effect on proliferation index relative to aCSF control” value is recorded as “promote glioma cell proliferation”.
On to “EGF: Epidermal growth factor (Shenandoah), ligand known to stimulate the PI3K pathway”, for which the “effect on glioma cell NLGN3 expression” value in experiment [2] (50 nM EGF, 12 hour vs vehicle) was “no effect was found”.
“GRP78: Recombinant 78-kDa glucose-regulated protein (Abcam), known glioma mitogen”: in the experiment on SU-pcGBM2 cells [1], the “potency of proliferation promotion compared with NLGN3” value is given as “less potently than NLGN3” and the “effect on proliferation index relative to aCSF control” value is listed as “promote glioma cell proliferation”.
Regarding “NRXN1β: Recombinant neurexin-1β (R&D Systems), binds NLGN3 with high affinity, used to deplete NLGN3”, in the experiment with SU-pcGBM2 cells [1], the “effect on the proliferative effect of active CM” value was “completely abrogates the proliferative effect of active CM”. Also, the “effect on proliferation index” value in the experiment on SU-pcGBM2 cells [1] (NRXN1β alone (500 nM) added to aCSF or to CM from WT cortical slices) was “no effect on proliferation index”. The proliferation index in the experiment with SU-pcGBM2 cells [1] (pHGG cells exposed to 50 nM NLGN3+500 nM NRXN1β) is 0.28±0.01; in the experiment on SU-pcGBM2 cells [1] (pHGG cells exposed to Thy1::ChR2 CM+NRXN1β (500 nM)), 0.34±0.01.
In the case of TAPI, the “secreted NLGN3 levels in active CM” value was “no effect on NLGN3 levels was observed” in the experiment with secreted NLGN3 and “did not decrease NLGN3 levels” in the experiment on secreted NLGN3 (listed as ADAM17 inhibitor). Further, the “effect on the mitogenic effect of active CM” value in the experiment with pHGG cells is listed as “did not alter the mitogenic effect of active CM”.
